Measurements reported in ChEMBL document CHEMBL5393457, “Combined inhibition of amino acid transporters for inhibiting human plasmacytoid dendritic cell activity during autoimmunity” (2022).
Active and inactive are the calls of the source.

Legend:
[1] = target: T1, Signal transducer and activator of transcription 5A (Homo sapiens) (UniProt P42229); experiment: Inhibition of STAT5 in IL-3 and CpG-A-stimulated human plasmacytoid dendritic cells at 10 to 50 nM assessed as decrease in TNF production in presence of 100 uM sulfasalazine; type: cell-based; settings: Plasmacytoid dendritic cell, dose 10-50 nM
T1 sequence (whole entry): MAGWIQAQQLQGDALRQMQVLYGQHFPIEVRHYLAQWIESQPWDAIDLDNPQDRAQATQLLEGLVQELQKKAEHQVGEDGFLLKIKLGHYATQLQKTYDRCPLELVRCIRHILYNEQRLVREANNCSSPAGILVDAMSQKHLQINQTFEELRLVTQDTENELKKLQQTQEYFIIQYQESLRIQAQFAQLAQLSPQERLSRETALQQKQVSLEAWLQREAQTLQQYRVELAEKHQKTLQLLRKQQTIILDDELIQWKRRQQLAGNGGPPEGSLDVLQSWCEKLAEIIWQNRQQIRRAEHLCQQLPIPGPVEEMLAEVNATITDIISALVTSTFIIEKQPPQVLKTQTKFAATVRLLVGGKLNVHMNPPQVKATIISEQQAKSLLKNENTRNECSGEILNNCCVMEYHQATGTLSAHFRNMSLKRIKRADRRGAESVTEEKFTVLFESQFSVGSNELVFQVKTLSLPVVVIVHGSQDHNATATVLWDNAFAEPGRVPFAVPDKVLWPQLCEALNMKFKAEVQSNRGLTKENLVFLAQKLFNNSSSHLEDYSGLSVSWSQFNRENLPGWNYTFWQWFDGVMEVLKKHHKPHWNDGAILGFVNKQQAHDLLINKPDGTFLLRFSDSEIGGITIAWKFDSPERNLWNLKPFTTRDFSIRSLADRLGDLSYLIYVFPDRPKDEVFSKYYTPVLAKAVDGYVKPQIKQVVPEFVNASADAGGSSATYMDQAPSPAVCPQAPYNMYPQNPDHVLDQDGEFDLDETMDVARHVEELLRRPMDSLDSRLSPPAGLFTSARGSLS

[2] = target: T1, Signal transducer and activator of transcription 5A (Homo sapiens); experiment: Inhibition of STAT5 in IL-3 and CpG-A-stimulated human plasmacytoid dendritic cells at 10 to 50 nM assessed as decrease in IFN-alpha production in presence of 100 uM sulfasalazine; type: cell-based; settings: Plasmacytoid dendritic cell, dose 10-50 nM
[3] = target: T2, Cystine/glutamate transporter (Homo sapiens) (UniProt Q9UPY5); experiment: Inhibition of XCT in CpG-A-activated human plasmacytoid dendritic cells at 200 uM assessed as decrease in IFN-alpha production; type: cell-based; settings: Plasmacytoid dendritic cell
T2 sequence (whole entry): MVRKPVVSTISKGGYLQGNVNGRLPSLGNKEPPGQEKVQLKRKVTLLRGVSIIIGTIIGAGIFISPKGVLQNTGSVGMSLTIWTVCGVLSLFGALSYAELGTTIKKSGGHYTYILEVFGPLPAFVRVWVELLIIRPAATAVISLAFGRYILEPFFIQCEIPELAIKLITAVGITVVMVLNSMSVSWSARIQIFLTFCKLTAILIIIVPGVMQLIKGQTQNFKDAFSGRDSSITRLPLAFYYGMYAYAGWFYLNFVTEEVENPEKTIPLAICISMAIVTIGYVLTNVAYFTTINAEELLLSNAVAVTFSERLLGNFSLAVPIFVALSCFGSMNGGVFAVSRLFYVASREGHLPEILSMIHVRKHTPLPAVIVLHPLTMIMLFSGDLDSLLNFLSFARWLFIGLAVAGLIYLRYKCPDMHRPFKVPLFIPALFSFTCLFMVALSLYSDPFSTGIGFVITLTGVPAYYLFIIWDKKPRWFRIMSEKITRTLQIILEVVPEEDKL

[4] = target: T2, Cystine/glutamate transporter (Homo sapiens); experiment: Inhibition of XCT in IL-3 and CpG-A-stimulated human plasmacytoid dendritic cells at 100 uM assessed as decrease in IFN-alpha production in presence of 1 to 2 uM JPH203; type: cell-based; settings: Plasmacytoid dendritic cell
[5] = target: T2, Cystine/glutamate transporter (Homo sapiens); experiment: Inhibition of XCT in IL-3 and CpG-A-stimulated human plasmacytoid dendritic cells assessed as decrease in IFN-alpha production in presence of mavrilimumab; type: cell-based; settings: Plasmacytoid dendritic cell
[6] = target: T2, Cystine/glutamate transporter (Homo sapiens); experiment: Inhibition of XCT in IL-3 CpG-A-activated human plasma at 100 uM assessed as decrease in pDC activation in presence of 0.1 uM baricitinib
[7] = target: T2, Cystine/glutamate transporter (Homo sapiens); experiment: Inhibition of XCT in IL-3 and CpG-A-stimulated human plasmacytoid dendritic cells at 100 uM assessed as decrease in IFN-alpha production in presence of 10 to 50 nM IQDMA; type: cell-based; settings: Plasmacytoid dendritic cell
[8] = target: T2, Cystine/glutamate transporter (Homo sapiens); experiment: Inhibition of XCT in IL-3 and CpG-A-stimulated human plasmacytoid dendritic cells at 100 uM assessed as decrease in IFN-alpha production in presence of 1 to 2 uM AC-4-130; type: cell-based; settings: Plasmacytoid dendritic cell
[9] = target: T2, Cystine/glutamate transporter (Homo sapiens); experiment: Inhibition of XCT in CpG-A-activated human plasmacytoid dendritic cells at 200 uM assessed as decrease in TNF production; type: cell-based; settings: Plasmacytoid dendritic cell
[10] = target: T2, Cystine/glutamate transporter (Homo sapiens); experiment: Inhibition of XCT in CpG-A-activated human plasmacytoid dendritic cells at 100 uM assessed as decrease in IFN-alpha production in presence of 25 to 100 uM baricitinib; type: cell-based; settings: Plasmacytoid dendritic cell
[11] = target: T2, Cystine/glutamate transporter (Homo sapiens); experiment: Inhibition of XCT in IL-3 and CpG-A-stimulated human plasmacytoid dendritic cells at 100 uM assessed as decrease in TNF production in presence of 1 to 2 uM JPH203; type: cell-based; settings: Plasmacytoid dendritic cell
[12] = target: T2, Cystine/glutamate transporter (Homo sapiens); experiment: Inhibition of XCT in IL-3 and CpG-A-stimulated human plasmacytoid dendritic cells at 100 uM assessed as decrease in TNF production in presence of 1 to 2 uM pimozide; type: cell-based; settings: Plasmacytoid dendritic cell
[13] = target: T2, Cystine/glutamate transporter (Homo sapiens); experiment: Inhibition of XCT in IL-3 CpG-A-activated human plasma at 200 uM assessed as decrease in pDC activation
[14] = target: T2, Cystine/glutamate transporter (Homo sapiens); experiment: Inhibition of XCT in CpG-A-activated human plasmacytoid dendritic cells at 200 uM assessed as decrease in ENPP2 expression; type: cell-based; settings: Plasmacytoid dendritic cell
[15] = target: T2, Cystine/glutamate transporter (Homo sapiens); experiment: Inhibition of XCT in IL-3 and CpG-A-stimulated human plasmacytoid dendritic cells at 100 uM assessed as decrease in TNF production in presence of 1 to 2 uM AC-4-130; type: cell-based; settings: Plasmacytoid dendritic cell
[16] = target: T2, Cystine/glutamate transporter (Homo sapiens); experiment: Inhibition of XCT in CpG-A-activated human plasmacytoid dendritic cells at 200 uM assessed as decrease in MYO1E expression; type: cell-based; settings: Plasmacytoid dendritic cell
[17] = target: T2, Cystine/glutamate transporter (Homo sapiens); experiment: Inhibition of XCT in IL-3 and CpG-A-stimulated human plasmacytoid dendritic cells at 100 uM assessed as decrease in TNF production in presence of 0.2 to 5 ug/ml IGN523; type: cell-based; settings: Plasmacytoid dendritic cell
[18] = target: T2, Cystine/glutamate transporter (Homo sapiens); experiment: Inhibition of XCT in CpG-A-activated human plasmacytoid dendritic cells at 200 uM assessed as decrease in S6 phosphorylation; type: cell-based; settings: Plasmacytoid dendritic cell
[19] = target: T2, Cystine/glutamate transporter (Homo sapiens); experiment: Inhibition of XCT in IL-3 and CpG-A-stimulated human plasmacytoid dendritic cells at 100 uM assessed as decrease in IFN-alpha production in presence of 1 to 2 uM pimozide; type: cell-based; settings: Plasmacytoid dendritic cell
[20] = target: T2, Cystine/glutamate transporter (Homo sapiens); experiment: Inhibition of XCT in CpG-A-activated human plasmacytoid dendritic cells at 200 uM assessed as decrease in kynurenine uptake; type: cell-based; settings: Plasmacytoid dendritic cell
[21] = target: T2, Cystine/glutamate transporter (Homo sapiens); experiment: Inhibition of XCT in IL-3 and CpG-A-stimulated human plasmacytoid dendritic cells assessed as decrease in TNF production in presence of mavrilimumab; type: cell-based; settings: Plasmacytoid dendritic cell
[22] = target: Tyrosine-protein kinase JAK2 (Homo sapiens) (UniProt O60674); experiment: Inhibition of JAK2 in CpG-A-activated human plasmacytoid dendritic cells at 100 uM assessed as decrease in TNF production in presence of 25 to 100 uM baricitinib; type: cell-based; settings: Plasmacytoid dendritic cell
[23] = target: T2, Cystine/glutamate transporter (Homo sapiens); experiment: Inhibition of XCT in IL-3 and CpG-A-stimulated human plasmacytoid dendritic cells at 100 uM assessed as decrease in IFN-alpha production in presence of 0.2 to 5 ug/ml IGN523; type: cell-based; settings: Plasmacytoid dendritic cell
[24] = target: T2, Cystine/glutamate transporter (Homo sapiens); experiment: Inhibition of XCT in IL-3 and CpG-A-stimulated human plasmacytoid dendritic cells at 100 uM assessed as decrease in TNF production in presence of 10 to 50 nM IQDMA; type: cell-based; settings: Plasmacytoid dendritic cell

Measured: inhibition

Sequence of Tyrosine-protein kinase JAK2 (Homo sapiens) (O60674 whole entry): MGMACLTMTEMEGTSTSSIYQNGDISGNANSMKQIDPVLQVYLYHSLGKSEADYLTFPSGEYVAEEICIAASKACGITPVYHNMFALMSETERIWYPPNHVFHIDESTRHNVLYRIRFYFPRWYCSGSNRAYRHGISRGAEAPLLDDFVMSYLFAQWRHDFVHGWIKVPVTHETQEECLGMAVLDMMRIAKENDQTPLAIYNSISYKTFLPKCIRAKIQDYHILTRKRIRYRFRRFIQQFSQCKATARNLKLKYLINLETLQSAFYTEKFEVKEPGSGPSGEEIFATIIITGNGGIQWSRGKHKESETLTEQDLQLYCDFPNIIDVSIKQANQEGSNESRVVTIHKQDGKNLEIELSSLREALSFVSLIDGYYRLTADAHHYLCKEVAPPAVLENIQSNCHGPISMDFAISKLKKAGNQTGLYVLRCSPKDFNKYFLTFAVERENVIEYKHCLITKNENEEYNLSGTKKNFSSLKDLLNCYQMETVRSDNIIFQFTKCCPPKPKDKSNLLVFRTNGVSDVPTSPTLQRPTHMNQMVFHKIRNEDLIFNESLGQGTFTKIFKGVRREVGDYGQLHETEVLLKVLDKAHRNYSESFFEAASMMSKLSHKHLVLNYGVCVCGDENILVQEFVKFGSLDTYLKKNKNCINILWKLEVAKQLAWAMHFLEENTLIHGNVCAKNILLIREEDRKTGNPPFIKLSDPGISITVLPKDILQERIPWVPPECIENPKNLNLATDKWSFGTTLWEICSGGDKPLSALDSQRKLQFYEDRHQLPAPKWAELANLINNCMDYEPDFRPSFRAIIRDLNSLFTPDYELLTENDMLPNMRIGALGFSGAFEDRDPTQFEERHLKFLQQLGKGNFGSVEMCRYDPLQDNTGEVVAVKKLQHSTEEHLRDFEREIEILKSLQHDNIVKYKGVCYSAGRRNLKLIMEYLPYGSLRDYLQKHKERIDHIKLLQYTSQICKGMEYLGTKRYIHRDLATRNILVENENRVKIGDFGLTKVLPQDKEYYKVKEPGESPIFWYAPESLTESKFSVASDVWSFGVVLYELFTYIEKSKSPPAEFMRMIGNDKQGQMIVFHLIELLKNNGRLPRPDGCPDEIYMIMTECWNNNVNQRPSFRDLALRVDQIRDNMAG

CN(C)CCNc1nc2ccccc2c2[nH]c3ccccc3c12
active: [1] | [2]

O=C(O)c1cc(/N=N/c2ccc(S(=O)(=O)Nc3ccccn3)cc2)ccc1O
not listed: [1] | [2]
active: all other assays above
